Results: publication PMC10819771 (Pharmaceuticals, 2023)
Values joined by “and” are separate entries in the source; they are usually repeats but may differ in a detail not shown here. Equal entries are not always repeated. Where two headings read alike, the source gives them in different places.

Key:
[1] = system: Fc-MYCT; assay: FRET-melting, Fc-MYCT; format: binding; settings: ligand 2 μM, DNA 0.2 μM, K+ conditions, pH 7.2
[2] = system: MCF-7; assay: MTT antiproliferative assay, MCF-7; format: cell-based, human; settings: for IC50: Homo sapiens, MCF7, 72 h, MTT, 72 h, breast cancer cells, read-out: IC50 Values (μM) ± SEM MCF-7; for Selectivity Index HEK293/MCF-7: IC50 HEK293 / IC50 MCF-7
How it was run: (§1)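 5000 cells/well; overnight attachment; 6 conc. (0.1–30.0 µM), 72 h, 37 °C/5% CO2, MEM + 10% FBS. MTT 4 h → formazan in DMSO → A545 nm vs untreated wells. ≥2 independent runs, 5 parallel wells each.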

[3] = system: HeLa; assay: MTT antiproliferative assay, HeLa; format: cell-based, human; settings: for IC50: Homo sapiens, HeLa, MTT, 72 h, cervical cancer cells, read-out: IC50 Values (μM) ± SEM HeLa; for Selectivity Index HEK293/HeLa: IC50 HEK293 / IC50 HeLa
How it was run: as §1

[4] = system: HEK293; assay: MTT proliferation test on normal cells, HEK293; format: cell-based; settings: Homo sapiens, normal epithelial cells, cytotoxicity, read-out: IC50 Values (μM) ± SEM HEK293
Method: The MTT proliferation test on the epithelial cell line HEK293 was performed as pre-viously described. The 50% inhibiting concentrations (IC50) were determined by linear regression analysis.

[5] = system: SiHa; assay: MTT antiproliferative assay, SiHa; format: cell-based, human; settings: for IC50: Homo sapiens, SiHa, MTT, 72 h, cervical cancer cells, read-out: IC50 Values (μM) ± SEM SiHa; for Selectivity Index HEK293/SiHa: IC50 HEK293 / IC50 SiHa
How it was run: as §1

[6] = system: ds26 (DNA, duplex) CAATCGGATCGAATTCGATCCGATTG; assay: native ESI-MS; settings: 100 mM NH4+ (ammonium acetate), pH 6.8, 10 µM DNA, 20 µM ligand, first of two successive steps
[7] = system: human telomeric sequence 24TTG; assay: Native electrospray mass spectrometry, 24TTG; format: binding; settings: 10 µM DNA, 20 µM ligand; for Bound DNA (%) 24TTG: 100 mM ammonium acetate
Method: These parameters ensured a good signal intensity without disrupting noncovalent complexes, which was verified using d[G4T4G4]2 as a control. Oligonucleotides were purchased lyophilized, and RP-cartridge purified from Eurogentec (Kanaka Eurogentec, Seraing, Belgium), then buffer exchanged with ammonium acetate (5 M; Sigma-Aldrich, Saint-Quentin-Fallavier, France) using Amicon Ultra (3 K cut-off; Merck Millipore, Cork, Ireland). Sample solutions were prepared by diluting the proper volume of oligonucleotide stock solutions to reach 10 µM of DNA and 20 µM of ligand, in 100 mM ammonium acetate. The solutions were incubated for 16 h at 4 °C before analysis. Kd were calculated as already described.

[8] = system: telomerase; assay: Telomerase activity (TRAP assay) in MCF-7 cell lysates; format: biochemical, human; settings: MCF-7 cell lysate
Method: Telomerase activity was assessed using the TRAP assay kit (TRAPeze® RT telomerase detection kit, Chemicon, Millipore Sigma S7700, Merck KGaA, Darmstadt, Germany) according to manufacturer’s instructions with some modifications. Briefly, […] in CHAPS lysis buffer and proteins were extracted. Protein extracts and various concentrations of compounds (0 to 5 µM) were used to extend a synthetic telomeric DNA using an enzymatic reaction (30 °C during 20 min), followed by a quantification of telomeric DNA using a telomeric PCR amplification: 95 °C for 3 min, 2 cycles of 95 °C for 20 s, and 49 °C for 20 s, followed by 30 cycles 95 °C for 20 s and 60 °C for 20 s with signal acquisition) in a Stratagene Mx3005P system (Agilent, Les Ulis, France) using specific telomeric PCR quantitative primers. Each sample was measured in technical duplicate with control DNA. For each drug and each dilution, we used biological triplicate of cell lysates.

[9] = system: FK-RAST (DNA, G4) AGGGCGGTGTGGGAAGAGGGA; assay: FRET melting; settings: 10 mM K+, 90 mM Li+; 10 mM lithium cacodylate pH 7.2; 0.2 µM DNA, 2 µM compound
[10] = system: FBCL-2T (DNA, G4) GGGCGCGGGAGGAAGGGGGCGGG; assay: FRET melting; settings: 10 mM K+, 90 mM Li+; 10 mM lithium cacodylate pH 7.2; 0.2 µM DNA, 2 µM compound
[11] = system: Fc-MYCT (DNA, G4) GGGTGGGTAGGGTGGGTAA; assay: FRET melting; settings: 1 mM K+, 99 mM Li+ (table footnote says 10 mM KCl, 90 mM LiCl); 10 mM lithium cacodylate pH 7.2; 0.2 µM DNA, 2 µM compound
[12] = system: F21T (DNA, G4) GGGTTAGGGTTAGGGTTAGGG; assay: FRET melting; settings: 10 mM K+, 90 mM Li+; 10 mM lithium cacodylate pH 7.2; 0.2 µM DNA, 2 µM compound
[13] = system: FdxT (DNA, hairpin, hexaethylene glycol linker between 10 and 11) TATAGCTATATATAGCTATA; assay: FRET melting; settings: 10 mM K+, 90 mM Li+; 10 mM lithium cacodylate pH 7.2; 0.2 µM DNA, 2 µM compound
[14] = first binding event (1:1 complex), read-out: Kd1 24TTG
[15] = second binding event (2:1 complex), read-out: Kd2 24TTG

With `CN(C)CCCNCc1ccc(-c2nc(-c3ccc(CNCCCN(C)C)cc3)c3cc(-c4ccccc4)ccc3n2)cc1` [Compound 12b, 2,4-bis{4-[(3-dimethylaminopropyl)aminomethyl]phenyl}-6-phenylquinazoline] as the compound, how does the “ΔT1/2 (°C) Fc-MYCT” value [1] read?
Its value is 5.8 ± 0.9 °C.

What about the IC50 [2] of the same compound?
Its IC50 is 0.58 ± 0.02 µM.

And the “Selectivity Index HEK293/MCF-7” value [2]?
Its value is greater than 51.7.

What about the IC50 [3] of the same compound?
Its IC50 is 0.82 ± 0.31 µM.

And the “Selectivity Index HEK293/HeLa” value [3]?
Its value is greater than 36.6.

What about the IC50 [4] of the same compound?
Its IC50 is greater than 30 µM.

What about the IC50 [5] of the same compound?
The IC50 was 1.08 ± 0.1 µM.

What about the “Selectivity Index HEK293/SiHa” value [5] of the same compound?
The value was greater than 27.8.

What about the Kd1 ([6]; Kd2 130) of the same compound?
The Kd1 was 17 µM.

And the “Bound DNA (%) 24TTG” value [7]?
The value was 77%.

And the Kd [7, 14]?
The Kd was 9.5 µM.

And the Kd [7, 15]?
Its Kd is 1.5 µM.

What about the “telomerase activity compared to control” value ([8]; 5 µM compound) of the same compound?
Its value is “reduced drastically”.

What about the “concentration from which MCF-7 telomerase activity is decreased” value ([8]; 0 to 5 µM tested) of the same compound?
Its value is 0.5 µM.

For `CN1CCN(CCCCNCc2ccc(-c3nc(-c4ccc(CNCCCCN5CCN(C)CC5)cc4)c4cc(-c5ccccc5)ccc4n3)cc2)CC1` [Compound 12e, 2,4-bis{4-[(4-(4-methylpiperazin-1-yl)butyl)aminomethyl]phenyl}-6-phenylquinazoline], which “ΔT1/2 (°C) Fc-MYCT” value [1] is on record?
Its value is 19.5 °C and 19.5 ± 1.0 °C.

And the IC50 [2]?
Its IC50 is 1.27 ± 0.01 µM.

And the IC50 [3]?
Its IC50 is 1.27 ± 0.02 µM.

And the ΔT1/2 [9]?
Its ΔT1/2 is 33.1 ± 2.1 °C.

And the ΔT1/2 [10]?
The ΔT1/2 was 22.7 ± 0.4 °C.

What about the ΔT1/2 [11] of the same compound?
The ΔT1/2 was 19.5 ± 1.0 °C.

And the ΔT1/2 [12]?
Its ΔT1/2 is 33.9 ± 0.5 °C.

What about the ΔT1/2 [13] of the same compound?
Its ΔT1/2 is 5.4 ± 1.6 °C.

What about the IC50 [5] of the same compound?
The IC50 was 0.63 ± 0.05 µM.

What about the Kd1 ([6]; Kd2 280) of the same compound?
Its Kd1 is 30 µM.

What about the “Bound DNA (%) 24TTG” value [7] of the same compound?
Its value is 72%.

What about the Kd [7, 14] of the same compound?
The Kd was 14 µM.

And the Kd [7, 15]?
The Kd was 1.9 µM.

`CN(C)CCCNCc1ccc(-c2cc(-c3ccc(CNCCCN(C)C)cc3)c3cc(-c4ccccc4)ccc3n2)cc1` [Compound 13a, 2,4-bis{4-[(3-dimethylaminopropyl)aminomethyl]phenyl}-6-phenylquinoline] was tested. Which “ΔT1/2 (°C) Fc-MYCT” value [1] did it give?
Its value is 7.3 ± 1.0 °C.

What about the IC50 [2] of the same compound?
The IC50 was 0.54 ± 0.01 µM.

And the “Selectivity Index HEK293/MCF-7” value [2]?
Its value is greater than 55.5.

And the IC50 [3]?
Its IC50 is 0.5 ± 0.01 µM.

And the “Selectivity Index HEK293/HeLa” value [3]?
The value was greater than 60.0.

And the IC50 [4]?
Its IC50 is greater than 30 µM.

What about the IC50 [5] of the same compound?
Its IC50 is 0.99 ± 0.15 µM.

What about the “Selectivity Index HEK293/SiHa” value [5] of the same compound?
The value was greater than 30.3.

What about the Kd1 ([6]; Kd2 95) of the same compound?
The Kd1 was 14 µM.

And the “Bound DNA (%) 24TTG” value [7]?
Its value is 81%.

And the Kd [7, 14]?
Its Kd is 3.7 µM.

What about the Kd [7, 15] of the same compound?
Its Kd is 7.1 µM.

Which results are given for `CN1CCN(CCCCNCc2ccc(-c3cc(-c4ccc(CNCCCCN5CCN(C)CC5)cc4)c4cc(-c5ccccc5)ccc4n3)cc2)CC1` [Compound 13d, 2,4-bis{4-[(4-(4-methylpiperazin-1-yl)butyl)aminomethyl]phenyl}-6-phenylquinoline]?
ΔT1/2 (°C) Fc-MYCT [1]: 10.6 ± 0.7 °C; IC50 [2]: 1.62 ± 0.09 µM; IC50 [3]: 2.27 ± 0.89 µM; ΔT1/2 [10]: 5.0 ± 1.1 °C; IC50 [5]: 1.11 ± 0.37 µM; Kd1 ([6]; Kd2 460): 85 µM; Bound DNA (%) 24TTG [7]: 39%; Kd [7, 14]: 29 µM; Kd [7, 15]: 83 µM
